Test results published in ChEMBL document CHEMBL3745662, “Preliminary investigation of 6,7-dihydropyrazolo[1,5-a]pyrazin-4-one derivatives as a novel series of mGlu5 receptor positive allosteric modulators with efficacy in preclinical models of schizophrenia” (Bioorg Med Chem Lett, 2016).
Values after ≈ are worked out from the molar mass of the structure shown. Active and inactive are the calls of the source. The calls are words filed in the database; no cut-off is given here.

Experiments:
[1] = target: T1, Metabotropic glutamate receptor 5 (Homo sapiens, UniProt P41594); experiment: Positive allosteric modulation of human mGlu5 expressed in HEK293 cells assessed as glutamate-induced calcium mobilization; format: functional, cell-based
Target sequence in this assay (P41594 whole entry): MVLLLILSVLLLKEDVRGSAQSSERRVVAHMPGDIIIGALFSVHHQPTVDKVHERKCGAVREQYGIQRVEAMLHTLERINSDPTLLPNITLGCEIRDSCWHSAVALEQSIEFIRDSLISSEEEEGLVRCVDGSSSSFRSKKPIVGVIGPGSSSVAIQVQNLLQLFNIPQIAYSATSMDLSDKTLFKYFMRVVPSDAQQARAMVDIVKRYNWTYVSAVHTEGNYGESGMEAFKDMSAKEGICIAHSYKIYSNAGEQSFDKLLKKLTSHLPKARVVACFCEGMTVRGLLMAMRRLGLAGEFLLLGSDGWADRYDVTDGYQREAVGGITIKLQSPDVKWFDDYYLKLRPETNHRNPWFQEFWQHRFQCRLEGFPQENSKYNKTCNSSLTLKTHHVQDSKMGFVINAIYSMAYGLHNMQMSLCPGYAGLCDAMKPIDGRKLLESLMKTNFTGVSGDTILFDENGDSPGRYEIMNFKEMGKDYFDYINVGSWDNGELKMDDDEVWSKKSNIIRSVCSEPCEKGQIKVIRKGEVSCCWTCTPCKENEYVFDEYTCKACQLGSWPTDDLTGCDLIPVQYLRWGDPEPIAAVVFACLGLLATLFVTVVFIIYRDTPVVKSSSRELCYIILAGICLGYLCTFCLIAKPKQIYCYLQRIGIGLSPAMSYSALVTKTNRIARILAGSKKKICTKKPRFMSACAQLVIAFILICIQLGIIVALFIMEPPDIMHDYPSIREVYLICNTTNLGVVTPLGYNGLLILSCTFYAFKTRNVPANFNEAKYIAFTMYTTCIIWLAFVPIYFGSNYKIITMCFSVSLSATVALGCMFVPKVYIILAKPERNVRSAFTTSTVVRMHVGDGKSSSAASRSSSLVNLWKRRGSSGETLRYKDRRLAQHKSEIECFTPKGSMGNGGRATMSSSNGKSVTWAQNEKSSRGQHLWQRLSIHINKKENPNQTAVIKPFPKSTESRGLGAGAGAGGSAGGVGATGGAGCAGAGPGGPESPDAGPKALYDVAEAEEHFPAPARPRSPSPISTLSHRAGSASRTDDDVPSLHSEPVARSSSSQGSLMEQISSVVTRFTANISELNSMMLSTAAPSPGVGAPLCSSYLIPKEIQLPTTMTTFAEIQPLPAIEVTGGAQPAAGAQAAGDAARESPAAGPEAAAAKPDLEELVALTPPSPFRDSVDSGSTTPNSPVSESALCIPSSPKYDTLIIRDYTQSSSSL

[2] = target: T1, Metabotropic glutamate receptor 5; experiment: Positive allosteric modulation of human mGlu5 expressed in HEK293 cells assessed as glutamate-induced calcium mobilization relative to glutamate; format: functional, cell-based
Target sequence in this assay (P41594 21-1212 limits assumed): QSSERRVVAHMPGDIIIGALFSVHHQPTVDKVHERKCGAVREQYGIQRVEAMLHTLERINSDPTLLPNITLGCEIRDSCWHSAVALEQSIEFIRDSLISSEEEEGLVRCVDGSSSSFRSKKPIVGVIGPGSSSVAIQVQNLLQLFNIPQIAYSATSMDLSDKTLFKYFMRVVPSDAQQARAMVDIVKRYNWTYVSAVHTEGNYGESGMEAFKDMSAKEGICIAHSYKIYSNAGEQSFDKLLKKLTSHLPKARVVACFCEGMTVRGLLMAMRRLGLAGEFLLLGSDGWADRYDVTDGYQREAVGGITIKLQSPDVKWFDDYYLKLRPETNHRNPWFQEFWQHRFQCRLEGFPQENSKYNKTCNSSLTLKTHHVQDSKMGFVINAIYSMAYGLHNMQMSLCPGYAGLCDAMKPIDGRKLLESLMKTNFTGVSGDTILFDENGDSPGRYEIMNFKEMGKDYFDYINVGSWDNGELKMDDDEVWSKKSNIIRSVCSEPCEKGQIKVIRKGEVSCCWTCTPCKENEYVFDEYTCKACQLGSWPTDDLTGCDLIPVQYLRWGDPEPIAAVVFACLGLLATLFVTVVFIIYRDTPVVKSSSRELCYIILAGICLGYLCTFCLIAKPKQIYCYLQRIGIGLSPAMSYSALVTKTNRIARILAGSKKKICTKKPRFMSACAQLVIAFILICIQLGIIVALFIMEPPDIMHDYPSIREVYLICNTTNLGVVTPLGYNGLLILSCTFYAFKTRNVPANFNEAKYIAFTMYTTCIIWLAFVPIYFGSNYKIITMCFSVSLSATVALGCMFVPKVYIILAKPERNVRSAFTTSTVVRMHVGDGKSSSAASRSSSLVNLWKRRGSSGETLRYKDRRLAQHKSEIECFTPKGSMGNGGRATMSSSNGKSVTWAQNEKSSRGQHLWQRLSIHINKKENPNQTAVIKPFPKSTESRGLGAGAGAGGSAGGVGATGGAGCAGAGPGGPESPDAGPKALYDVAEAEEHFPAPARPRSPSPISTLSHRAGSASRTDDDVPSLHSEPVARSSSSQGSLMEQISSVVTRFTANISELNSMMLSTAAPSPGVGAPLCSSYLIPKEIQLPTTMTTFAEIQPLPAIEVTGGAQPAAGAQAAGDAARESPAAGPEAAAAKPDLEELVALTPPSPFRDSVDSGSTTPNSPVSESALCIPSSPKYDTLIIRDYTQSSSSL

[3] = target: Metabotropic glutamate receptor 3 (Homo sapiens, UniProt Q14832); experiment: Antagonist activity at human mGlu3 expressed in HEK293 cells assessed as inhibition of glutamate-induced calcium mobilization; format: functional, cell-based
[4] = target: Metabotropic glutamate receptor 1 (Homo sapiens, UniProt Q13255); experiment: Positive allosteric modulation of human mGlu1 receptor expressed in HEK293 cells assessed as calcium mobilization by fluorescence analysis; format: functional, cell-based
[5] = target: Metabotropic glutamate receptor 2 (Homo sapiens, UniProt Q14416); experiment: Positive allosteric modulation of human mGlu2 receptor expressed in HEK293 cells assessed as calcium mobilization by fluorescence analysis; format: functional, cell-based
[6] = target: Metabotropic glutamate receptor 7 (Homo sapiens, UniProt Q14831); experiment: Positive allosteric modulation of human mGlu7 receptor expressed in HEK293 cells assessed as calcium mobilization by fluorescence analysis; format: functional, cell-based
[7] = target: Metabotropic glutamate receptor 8 (Homo sapiens, UniProt O00222); experiment: Positive allosteric modulation of human mGlu8 receptor expressed in HEK293 cells assessed as calcium mobilization by fluorescence analysis; format: functional, cell-based
[8] = target: T2, Metabotropic glutamate receptor 4 (Homo sapiens, UniProt Q14833); experiment: Positive allosteric modulation of human mGlu4 receptor expressed in HEK293 cells assessed as calcium mobilization by fluorescence analysis; format: functional, cell-based
[9] = target: T2, Metabotropic glutamate receptor 4; experiment: Positive allosteric modulation of human mGlu4 receptor expressed in L929sA cells assessed as calcium mobilization by fluorescence analysis; format: functional, cell-based
[10] = target: T2, Metabotropic glutamate receptor 4; experiment: Positive allosteric modulation of human mGlu4 receptor expressed in HEK293 cells by [35S]-GTPgammaS binding assay; format: functional, cell-based
[11] = target: T2, Metabotropic glutamate receptor 4; experiment: Positive allosteric modulation of human mGlu4 receptor expressed in L929sA cells by [35S]-GTPgammaS binding assay; format: functional, cell-based
[12] = target: Metabotropic glutamate receptor 6 (Rattus norvegicus, UniProt P35349); experiment: Positive allosteric modulation of rat mGlu6 receptor expressed in CHO cells by [35S]-GTPgammaS binding assay; format: functional, cell-based
[13] = Percentage unbound in rat brain; format: ADME, tissue-based; conditions: brain tissue
Cytochrome P450 1A2 = target: T3, Cytochrome P450 1A2 (Homo sapiens, UniProt P05177); experiment: Inhibition of CYP1A2 (unknown origin); format: ADME
T3 sequence (P05177 whole entry): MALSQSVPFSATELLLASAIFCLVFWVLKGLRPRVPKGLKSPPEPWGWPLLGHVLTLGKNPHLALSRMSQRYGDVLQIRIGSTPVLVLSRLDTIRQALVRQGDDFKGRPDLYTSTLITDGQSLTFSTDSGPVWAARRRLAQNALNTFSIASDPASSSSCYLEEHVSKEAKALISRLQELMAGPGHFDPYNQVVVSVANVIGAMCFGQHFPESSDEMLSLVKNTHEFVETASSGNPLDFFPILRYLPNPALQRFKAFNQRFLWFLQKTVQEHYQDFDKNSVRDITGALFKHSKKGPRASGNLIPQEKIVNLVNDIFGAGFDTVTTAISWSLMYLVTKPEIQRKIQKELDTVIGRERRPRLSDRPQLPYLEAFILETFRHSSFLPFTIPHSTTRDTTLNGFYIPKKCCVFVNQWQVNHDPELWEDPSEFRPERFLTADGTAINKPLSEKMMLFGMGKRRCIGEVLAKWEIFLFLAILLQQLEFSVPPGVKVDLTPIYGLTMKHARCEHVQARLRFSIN

Cytochrome P450 2C9 = Cytochrome P450 2C9 (Homo sapiens, UniProt P11712); experiment: Inhibition of CYP2C9 (unknown origin); format: ADME
Cytochrome P450 2D6 = Cytochrome P450 2D6 (Homo sapiens, UniProt P10635); experiment: Inhibition of CYP2D6 (unknown origin); format: ADME
Cytochrome P450 3A4 = Cytochrome P450 3A4 (Homo sapiens, UniProt P08684); experiment: Inhibition of CYP3A4 (unknown origin); format: ADME
[14] = Plasma protein binding in human assessed as percentage unbound; format: ADME, cell-free
[15] = Plasma protein binding in rat assessed as percentage unbound; format: ADME, cell-free
[16] = Solubility of compound in fed state simulated intestinal fluid; format: ADME; conditions: simulated gi fluid
[17] = target: Voltage-gated inwardly rectifying potassium channel KCNH2 (Homo sapiens, UniProt Q12809); experiment: Inhibition of human ERG
[18] = Inhibition of Calcium channel (unknown origin); set-up: species or system Homo sapiens
[19] = Inhibition of Sodium channel (unknown origin); set-up: species or system Homo sapiens
[20] = Plasma clearance in rat at 2.5 mg/kg, iv; format: ADME, organism-based
[21] = Volume of distribution at steady state in rat at 2.5 mg/kg, iv; format: ADME, organism-based; conditions: in vivo, read-out: Vdss
[22] = Half life in rat at 2.5 mg/kg, iv; format: ADME, organism-based; conditions: in vivo
[23] = Cmax in rat at 10 mg/kg, po; format: ADME, organism-based; set-up: dose 10 mg/kg, route oral; conditions: in vivo
[24] = AUC (0 to infinity) in rat at 10 mg/kg, po; format: ADME, organism-based; set-up: dose 10 mg/kg, route oral, time infinity; conditions: in vivo
[25] = Oral bioavailability in rat at 10 mg/kg; format: ADME, organism-based; conditions: in vivo
[26] = Plasma clearance in dog at 0.5 mg/kg, iv; format: ADME, organism-based, Canis lupus familiaris
[27] = Volume of distribution at steady state in dog at 0.5 mg/kg, iv; format: ADME, organism-based, Canis lupus familiaris; conditions: in vivo, read-out: Vdss
[28] = Half life in dog at 0.5 mg/kg, iv; format: ADME, organism-based, Canis lupus familiaris; conditions: in vivo
[29] = Cmax in dog at 5 mg/kg, po; format: ADME, organism-based, Canis lupus familiaris; set-up: dose 5 mg/kg, route oral; conditions: in vivo
[30] = AUC (0 to infinity) in dog at 5 mg/kg, po; format: ADME, organism-based, Canis lupus familiaris; set-up: dose 5 mg/kg, time infinity, route oral; conditions: in vivo
[31] = Oral bioavailability in dog at 5 mg/kg; format: ADME, organism-based, Canis lupus familiaris; conditions: in vivo
Rattus norvegicus [32] = experiment: Antipsychotic-like activity in po dosed Sprague-Dawley rat assessed as reversal of amphetamine-induced hyperlocomotion; format: functional
Rattus norvegicus [33] = experiment: Antipsychotic-like activity in dosed Sprague-Dawley rat assessed as full reversal of amphetamine-induced hyperlocomotion at 100 mg/kg, po; format: functional, organism-based
Rattus norvegicus [34] = experiment: Procognitive activity in po dosed Sprague-Dawley rat assessed as enhancement of contexual fear conditioning acquistion treated for 30 mins prior to conditioning measured after 24 hrs; format: functional
Rattus norvegicus [35] = experiment: Toxicity in Sprague-Dawley rat assessed as complusive behavior at 25 to 600 mg/kg, po; format: organism-based; conditions: in vivo
Rattus norvegicus [36] = experiment: Toxicity in Sprague-Dawley rat assessed as pedaling movements of forepaws at 25 to 600 mg/kg, po; format: organism-based; conditions: in vivo
Rattus norvegicus [37] = experiment: Toxicity in Sprague-Dawley rat assessed as tremors at 25 to 600 mg/kg, po; format: organism-based; conditions: in vivo
Rattus norvegicus [38] = experiment: Toxicity in Sprague-Dawley rat assessed as mortality at 600 mg/kg, po; format: organism-based; conditions: in vivo
[39] = target: Platelet-activating factor receptor (Homo sapiens) (UniProt P25105); experiment: Inhibition of human PAF at 10 uM
in vivo [40] = conditions: rat, po, 10 mg/kg
Description: Tmax in rat at 10 mg/kg, po

in vivo [41] = conditions: dog, po, 5 mg/kg

T2 sequence (Q14833 whole entry): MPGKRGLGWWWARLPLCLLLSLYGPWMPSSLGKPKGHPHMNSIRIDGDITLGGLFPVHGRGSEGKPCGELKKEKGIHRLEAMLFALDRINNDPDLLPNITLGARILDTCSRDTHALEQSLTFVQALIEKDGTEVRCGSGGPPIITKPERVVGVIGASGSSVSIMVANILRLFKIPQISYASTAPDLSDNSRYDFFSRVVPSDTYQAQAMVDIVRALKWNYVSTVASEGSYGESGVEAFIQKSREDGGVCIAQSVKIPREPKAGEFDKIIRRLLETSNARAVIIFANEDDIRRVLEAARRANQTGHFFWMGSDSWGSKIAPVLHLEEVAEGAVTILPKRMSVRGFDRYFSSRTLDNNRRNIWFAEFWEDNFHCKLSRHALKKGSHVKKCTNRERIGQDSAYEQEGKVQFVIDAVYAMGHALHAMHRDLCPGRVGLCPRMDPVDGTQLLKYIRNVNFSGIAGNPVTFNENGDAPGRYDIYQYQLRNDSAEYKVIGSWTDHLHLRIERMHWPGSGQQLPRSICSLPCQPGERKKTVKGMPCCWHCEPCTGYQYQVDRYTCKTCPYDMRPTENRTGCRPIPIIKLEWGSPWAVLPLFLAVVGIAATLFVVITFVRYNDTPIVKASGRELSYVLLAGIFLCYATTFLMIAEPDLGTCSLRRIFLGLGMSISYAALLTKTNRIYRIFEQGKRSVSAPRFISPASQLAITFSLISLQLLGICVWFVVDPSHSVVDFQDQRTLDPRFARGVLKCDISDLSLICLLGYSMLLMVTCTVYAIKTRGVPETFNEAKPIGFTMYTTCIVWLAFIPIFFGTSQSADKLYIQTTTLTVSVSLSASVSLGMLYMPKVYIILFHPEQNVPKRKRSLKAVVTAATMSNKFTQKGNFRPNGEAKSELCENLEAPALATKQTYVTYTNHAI
Metabotropic glutamate receptor 3, sequence (Q14832 whole entry): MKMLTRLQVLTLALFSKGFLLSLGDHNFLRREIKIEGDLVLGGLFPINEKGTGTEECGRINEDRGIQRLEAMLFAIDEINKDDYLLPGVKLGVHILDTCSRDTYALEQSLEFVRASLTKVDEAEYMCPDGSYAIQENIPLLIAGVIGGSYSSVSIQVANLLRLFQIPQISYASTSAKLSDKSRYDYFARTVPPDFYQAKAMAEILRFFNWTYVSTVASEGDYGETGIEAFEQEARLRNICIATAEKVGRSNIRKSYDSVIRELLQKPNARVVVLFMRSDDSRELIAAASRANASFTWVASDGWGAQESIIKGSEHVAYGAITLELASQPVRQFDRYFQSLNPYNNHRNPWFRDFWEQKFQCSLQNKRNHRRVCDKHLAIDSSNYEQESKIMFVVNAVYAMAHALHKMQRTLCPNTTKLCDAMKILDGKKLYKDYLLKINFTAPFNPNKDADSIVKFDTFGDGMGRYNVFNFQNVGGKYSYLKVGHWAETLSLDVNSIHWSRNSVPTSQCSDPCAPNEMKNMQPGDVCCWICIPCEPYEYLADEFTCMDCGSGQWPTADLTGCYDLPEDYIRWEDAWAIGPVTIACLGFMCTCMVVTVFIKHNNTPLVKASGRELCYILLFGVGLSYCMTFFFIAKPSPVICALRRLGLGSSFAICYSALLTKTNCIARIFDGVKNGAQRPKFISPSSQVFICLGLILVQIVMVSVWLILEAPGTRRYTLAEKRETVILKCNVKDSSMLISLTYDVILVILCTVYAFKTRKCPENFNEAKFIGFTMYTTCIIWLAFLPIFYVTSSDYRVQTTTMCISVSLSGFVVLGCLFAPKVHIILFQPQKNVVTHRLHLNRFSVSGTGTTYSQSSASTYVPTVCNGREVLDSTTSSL
Metabotropic glutamate receptor 7, sequence (Q14831 whole entry): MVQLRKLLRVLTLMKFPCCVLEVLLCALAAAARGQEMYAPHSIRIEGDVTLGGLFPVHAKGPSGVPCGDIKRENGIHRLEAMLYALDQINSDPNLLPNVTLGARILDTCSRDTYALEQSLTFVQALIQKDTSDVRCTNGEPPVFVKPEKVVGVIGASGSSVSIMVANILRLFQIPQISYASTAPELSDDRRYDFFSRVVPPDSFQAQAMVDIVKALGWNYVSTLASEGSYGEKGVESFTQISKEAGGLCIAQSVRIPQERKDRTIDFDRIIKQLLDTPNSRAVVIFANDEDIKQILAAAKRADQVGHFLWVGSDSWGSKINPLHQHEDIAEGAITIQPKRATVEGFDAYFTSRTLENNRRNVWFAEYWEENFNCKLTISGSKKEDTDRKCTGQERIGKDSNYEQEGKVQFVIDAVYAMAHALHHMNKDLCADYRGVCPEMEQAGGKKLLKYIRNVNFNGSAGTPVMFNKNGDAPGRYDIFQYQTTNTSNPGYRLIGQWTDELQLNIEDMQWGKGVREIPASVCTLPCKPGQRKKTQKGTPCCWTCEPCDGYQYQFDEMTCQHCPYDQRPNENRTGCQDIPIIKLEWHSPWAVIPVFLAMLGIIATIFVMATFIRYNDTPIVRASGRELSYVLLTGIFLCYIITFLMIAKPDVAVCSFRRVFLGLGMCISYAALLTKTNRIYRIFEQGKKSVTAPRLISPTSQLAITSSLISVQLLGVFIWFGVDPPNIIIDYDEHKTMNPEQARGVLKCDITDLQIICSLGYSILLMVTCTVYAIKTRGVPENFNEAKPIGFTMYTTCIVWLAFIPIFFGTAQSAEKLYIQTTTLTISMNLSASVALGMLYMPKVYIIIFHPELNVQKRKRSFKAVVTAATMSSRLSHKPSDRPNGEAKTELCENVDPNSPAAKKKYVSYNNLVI

## Cc1ccc(OCc2cc3n(n2)CCN(c2ccc(F)cc2)C3=O)cc1
[1]; read-out: EC50
  EC50: 300 nM
[2]
  Emax: 58%

## O=C1c2cc(COc3ccccc3)nn2CCN1c1ccc(F)cn1
[1]; read-out: EC50
  EC50: 130 nM
[2]
  Emax: 72%
[3]
  EC50: 6760 nM
[4]
  EC50: > 10000 nM
[5]
  EC50: > 10000 nM
[6]
  EC50: > 10000 nM
[7]
  EC50: > 10000 nM
[8]
  EC50: > 10000 nM
[9]
  EC50: > 10000 nM
[10]
  EC50: > 10000 nM
[11]
  EC50: > 10000 nM
[12]
  EC50: > 10000 nM
[13]
  fraction unbound: 0.055
Cytochrome P450 1A2
  IC50: ≥ 30000 nM
Cytochrome P450 2C9
  IC50: ≥ 30000 nM
Cytochrome P450 2D6
  IC50: ≥ 30000 nM
Cytochrome P450 3A4
  IC50: ≥ 30000 nM
[14]
  Fu: 8.2%
[15]
  Fu: 6.8%
[16]
  solubility: 13 µg/mL (≈ 38.4 µM)
[17]
  IC50: > 10000 nM
[18]
  IC50: > 10000 nM
[19]
  IC50: > 10000 nM
[20]
  clearance: 19 mL/min/kg
[21]
  Vd: 1.6 L/kg
[22]
  half-life: 1.6 h
[23]
  Cmax: 730 ng/mL
[24]
  AUC(0-inf): 6670 ng·h/mL
[25]
  bioavailability: 88%
[26]
  clearance: 25 mL/min/kg
[27]
  Vd: 2.6 L/kg
[28]
  half-life: 2.4 h
[29]
  Cmax: 519 ng/mL
[30]
  AUC(0-inf): 1540 ng·h/mL
[31]
  bioavailability: 48%
Rattus norvegicus [32]
  Activity: Dose-dependent effect
Rattus norvegicus [33]
  Activity: Active
Rattus norvegicus [34]
  Activity: Dose-dependent effect
Rattus norvegicus [34]; read-out: MED
  minimal effective dose: 0.3 mg/kg
Rattus norvegicus [35]
  Activity: Toxic
Rattus norvegicus [36]
  Activity: Toxic
Rattus norvegicus [37]
  Activity: Toxic
Rattus norvegicus [38]
  Activity: Toxic
[39]
  inhibition: 57%
In vivo [40]
  Tmax: 4 h
In vivo [41]
  Tmax: 0.7 h

## Cc1ccc(N2CCn3nc(COc4ccccc4)cc3C2=O)cc1
[1]; read-out: EC50
  EC50: 71 nM
[2]
  Emax: 65%
[3]
  EC50: 150 nM

## O=C1c2cc(COc3ccccc3F)nn2CCN1c1ccc(F)cc1
[1]; read-out: EC50
  EC50: 150 nM
[2]
  Emax: 66%

## O=C1c2cc(COc3ccccc3)nn2CCN1c1ccncc1
[1]; read-out: EC50
  EC50: 2090 nM
[2]
  Emax: 72%

## O=C1c2cc(OCc3ccccc3)nn2CCN1c1ccc(F)cc1
[1]; read-out: EC50
  EC50: 160 nM
[2]
  Emax: 54%
[3]
  EC50: 3390 nM
[4]
  EC50: > 10000 nM
[5]
  EC50: > 10000 nM
[6]
  EC50: > 10000 nM
[7]
  EC50: > 10000 nM
[8]
  EC50: > 10000 nM
[9]
  EC50: > 10000 nM
[10]
  EC50: > 10000 nM
[11]
  EC50: > 10000 nM
[12]
  EC50: > 10000 nM
[13]
  fraction unbound: 0.065

## O=C1c2cc(COc3ccccc3)nn2CCN1c1ccccn1
[1]; read-out: EC50
  EC50: 760 nM
[2]
  Emax: 69%

## O=C1c2cc(COc3ccccc3)nn2CCN1c1ccccc1F
[1]; read-out: EC50
  EC50: 160 nM
[2]
  Emax: 86%

## O=C1c2cc(COc3cccc(F)c3)nn2CCN1c1ccc(F)cc1
[1]; read-out: EC50
  EC50: 100 nM
[2]
  Emax: 70%

## O=C1c2cc(COc3ccccc3)nn2CCN1c1ccc(F)c(F)c1
[1]; read-out: EC50
  EC50: 87 nM
[2]
  Emax: 81%

## O=C1c2nc(COc3ccccc3)nn2CCN1c1ccc(F)cc1
[1]; read-out: EC50
  EC50: 2340 nM
[2]
  Emax: 65%

## COc1ccc(N2CCn3nc(COc4ccccc4)cc3C2=O)nc1
[1]; read-out: EC50
  EC50: 620 nM
[2]
  Emax: 74%

## O=C1c2cc(OCc3ccccc3)nn2CCN1c1cc(F)ccn1
[1]; read-out: EC50
  EC50: > 30000 nM

## O=C1c2cc(COc3ccccc3)nn2CCCN1c1ccc(F)cc1
[1]; read-out: EC50
  EC50: 220 nM
[1]; read-out: pEC50 (converted)
  EC50: 87.1 nM
[2]
  Emax: 79%
[3]
  EC50: 540 nM

## O=C1c2cc(COc3ccccc3)nn2CCN1c1ccc(F)cc1
[1]; read-out: EC50
  EC50: 65 nM
[2]
  Emax: 79%
[3]
  EC50: 74 nM
